Laboratory results: patent US11266686B2, “Metal complexes and methods of treatment” (PROCYPRA THERAPEUTICS LLC, priority 2013, dated 2022)

Assays:
MPTP-lesioned mice [1] = assay: Traction wire test in MPTP-lesioned mouse model of PD; format: in vivo; conditions: for average pull-up time as compared to SSV control: 30 mg/kg API oral for 21 days, gluconic acid NCD p=0.07; for Pull-up Time: 30 mg/kg CuATSM API equivalent, oral gavage for 21 days, average
From the text: Traction wire test: Mice are moved to behavior room-testing room 1 hr before test administration. Water and food remain accessible to the mice, and a background “white noise” from a radio is used throughout the hour and test period. Each mouse is pick up the mouse by the tail in one hand, and the mouse held by the tail over the wire until it grasps the wire with the front two paws. The tail is then lowered until the mouse is suspended from the wire by its front two paws. The timing is started as soon as the mouse is suspended independently, with no assistance from the test administrator. The time taken for the mouse to grasp the wire with one of the back feet, such that two front paws and one back paw are grasping the wire, is recorded as the “pull-up time”. The test is repeated for each mouse, three times in a row with a 5 minute inter-trial interval between each suspension on the wire. Mice are returned to their shared cages between trials. If a mouse falls it counts as a trial, and the time until the fall is recorded, and the inter-trial time interval is begun. If the mouse has not completed the task and has not fallen within 60 seconds, then the mouse is taken off the wire and the trial time recorded as 60 seconds. A total of 47 mice were administered MPTP. Of these, a total of 14 mice were then treated with SSV negative control. A total of 14 mice were treated with CuATSM in SSV, of which one mouse was eliminated from the wire pull-up study because of an injured paw. […] Trials in which the mouse fell during the trial were not included in the averages. […] In all instances the mice completed the other two trials successfully so that an average time was calculated for the individual mouse and subsequently for the population.

MPTP-lesioned mice [2] = assay: Neutral Red positive cell count in substantia nigra of MPTP-lesioned mice; format: in vivo, mouse; conditions: 30 mg/kg API oral for 21 days
Procedure: (§1) CuATSM:gluconic acid (1:2) was prepared according to the method of EXAMPLE 7. CuATSM:saccharin (1:2) was prepared according to the methods of EXAMPLE 3. CuATSM was suspended in “Standard Suspension Vehicle” (SSV), consisting of 0.9% (w/v) NaCl, 0.5% (w/v) sodium carboxymethylcellulose, 0.5% (v/v) benzyl alcohol, and 0.4% (v/v) Tween 80 in deionized water. CuATSM:gluconic acid (1:2) and CuATSM:saccharin (1:2) were suspended in sterile water. Samples were prepared by adding one of the compounds to the liquid vehicle (water or SSV) in a vial and then vortexing the mixture for 3 min with a stir bar inside.
(§2) MPTP mouse models of PD are described by (Przedborski & Vila, 2003). […] Behavioral testing via the wire test and tissue harvesting followed.
Neuroprotective effects of the CuATSM and NCDs were determined by cell count.
Following the wire pull-up time tests, the mice were anesthetized, blood samples were then obtained for plasma studies, and the mice were then sacrificed by an overdose of anesthetic. Mice were then immediately perfused with cold PBS. The right hemisphere of the brain was placed in 5 ml of chilled 4% wt/vol paraformaldehyde (Sigma-Aldrich) in 0.1 M phosphate buffer overnight at 4° C. and pH 7.4. The brains were then removed and left at 4° C. overnight in 30% wt/vol sucrose (domestic grade) in PBS before being frozen and sectioned on a cryostat. Brains were cut coronally into 30-μm sections in a 1:3 series for the substantia nigra pars compacta (SNpc).
The resulting sections were stained with Neutral Red (Niss1 stain; Sigma-Aldrich). Just prior to immunostaining, the frozen sections are fixed again for 5 min in order to ensure that the brain sections are properly fixed to the glass slide. SNpc nuclei from both normal and lesioned animals were examined. […]
The total number of neurons in the substania nigra was estimated using fractionator sampling (Finkelstein et al., 2000; Stanic et al., 2003; West & Gundersen, 1990). […] The entire SNpc was sampled at every third section and analyzed in a series having a random offset for each brain. […]

[3] = Cu-63 in brain and plasma of treated MPTP-lesioned mice by ICPMS
Procedure: as §1, §2
Copper uptake in brain and in plasma was measured by inductively-coupled plasma mass spectrometry (ICPMS) determination of the naturally-occurring copper isotope Cu-63. Brain tissue was obtained from the left hemisphere of the brain.

[4] = MPTP-lesioned mice, 30 mg/kg API oral for 21 days
[5] = MPTP-lesioned mice, 30 mg/kg API oral for 21 days, ICPMS

Structure (SMILES) | average pull-up time as compared to SSV control (MPTP-lesioned mice [1]) | Pull-up Time (MPTP-lesioned mice [1]) [s] | neurons in the substania nigra as compared to SSV control (MPTP-lesioned mice [2]) | Cu-63 concentrations in brain tissue as compared to the SSV control [3, 4] | Cu-63 concentrations in plasma as compared to the SSV control [3, 4] | Cu-63 in brain, Average [3, 5] [µg/g] | Cu-63 in plasma, Average [3, 5] [μmol/ltr] | Cu-63 in brain, Average ([3]; mouse, in vivo, po, 30 mg/kg) [µg/g] | Cu-63 in plasma, Average ([3]; mouse, in vivo, po, 30 mg/kg) [μmol/ltr]
CNC1=NN=C(C)C(C)=NN=C(NC)[S][Cu][S]1.O=C1NS(=O)(=O)c2ccccc21.O=C1NS(=O)(=O)c2ccccc21 [CuATSM:saccharin (1:2)] | significant (both p<0.01 or less) decrease | 3.11 | significant (all p<0.01 or less) recovery of the neurons | significant (all p<0.001) increase | No treatments resulted in significant (all p>0.05) change | 14.66 | 6.13 | – | –
CNC1=NN=C(C)C(C)=NN=C(NC)[S][Cu][S]1 [CuATSM, Copper(II) diacetyl-di(N4-methyl)thiosemicarbazone, reference compound] | significant (both p<0.01 or less) decrease | 4.22 | significant (all p<0.01 or less) recovery of the neurons | – | – | – | – | 18.48 | 5.40
CNC1=NN=C(C)C(C)=NN=C(NC)[S][Cu][S]1.O=C(O)C(O)C(O)C(O)C(O)CO.O=C(O)C(O)C(O)C(O)C(O)CO [CuATSM:gluconic acid (1:2)] | decrease in the average pull-up time | 4.62 | significant (all p<0.01 or less) recovery of the neurons | significant (all p<0.001) increase | No treatments resulted in significant (all p>0.05) change | 22.20 | 5.27 | – | –
